Measurements: ChEMBL document CHEMBL4177646, “Discovery of novel nitroimidazole enols as Pseudomonas aeruginosa DNA cleavage agents” (Bioorg Med Chem, 2017)
Values after ≈ are worked out from the molar mass of the structure shown.

How the values were obtained:
Assay type in all cases: functional
Staphylococcus aureus [1] = assay: Antibacterial activity against methicillin-resistant Staphylococcus aureus N315 after 24 hrs by micro broth dilution method; settings: N315, 24 h
Staphylococcus aureus [2] = assay: Antibacterial activity against drug-resistant Staphylococcus aureus after 24 hrs by micro broth dilution method
Staphylococcus aureus [3] = assay: Antibacterial activity against Staphylococcus aureus ATCC 25923 after 24 hrs by micro broth dilution method; settings: ATCC 25923, 24 h
Staphylococcus aureus [4] = assay: Antibacterial activity against Staphylococcus aureus ATCC 29213 after 24 hrs by micro broth dilution method; settings: ATCC 29213, 24 h
Escherichia coli [5] = assay: Antibacterial activity against drug-resistant Escherichia coli after 24 hrs by micro broth dilution method
Escherichia coli [6] = assay: Antibacterial activity against Escherichia coli ATCC 25922 after 24 hrs by micro broth dilution method; settings: ATCC 25922, 24 h
Pseudomonas aeruginosa [7] = assay: Antibacterial activity against drug-resistant Pseudomonas aeruginosa after 24 hrs by micro broth dilution method
Pseudomonas aeruginosa [8] = assay: Antibacterial activity against Pseudomonas aeruginosa ATCC 27853 after 24 hrs by micro broth dilution method; settings: ATCC 27853, 24 h
Candida albicans [9] = assay: Antifungal activity against drug-resistant Candida albicans after 24 hrs by micro broth dilution method
Candida albicans [10] = assay: Antifungal activity against Candida albicans ATCC 90023 after 24 hrs by micro broth dilution method; settings: ATCC 90023, 24 h
Candida tropicalis = assay: Antifungal activity against Candida tropicalis after 24 hrs by micro broth dilution method
Pseudomonas aeruginosa [11] = assay: Potency index, ratio of norfloxacin MIC to compound MIC for Pseudomonas aeruginosa ATCC 27853

Compound	MIC (Staphylococcus aureus [1])	MIC (Staphylococcus aureus [2])	MIC (Staphylococcus aureus [3])	MIC (Staphylococcus aureus [4])	MIC (Escherichia coli [5])	MIC (Escherichia coli [6])	MIC (Pseudomonas aeruginosa [7])	MIC (Pseudomonas aeruginosa [8])	MIC (Candida albicans [9])	MIC (Candida albicans [10])	MIC (Candida tropicalis)	Ratio (Pseudomonas aeruginosa [11])
Cc1ncc([N+](=O)[O-])n1/C(=C/c1ccc(Cl)cc1Cl)C(C)O (stereo not drawn)	1500 µM (≈ 513 µg/mL)	1500 µM (≈ 513 µg/mL)	1500 µM (≈ 513 µg/mL)	1500 µM (≈ 513 µg/mL)	1500 µM (≈ 513 µg/mL)	1500 µM (≈ 513 µg/mL)	1500 µM (≈ 513 µg/mL)	750 µM (≈ 257 µg/mL)	512 µg/mL (≈ 1500 µM)	64 µg/mL (≈ 187 µM)	256 µg/mL (≈ 748 µM)	
Cc1ncc([N+](=O)[O-])n1CCO [METRONIDAZOLE]	2970 µM (≈ 508 µg/mL)	2970 µM (≈ 508 µg/mL)	2970 µM (≈ 508 µg/mL)	2970 µM (≈ 508 µg/mL)	2970 µM (≈ 508 µg/mL)	2970 µM (≈ 508 µg/mL)	2970 µM (≈ 508 µg/mL)	2970 µM (≈ 508 µg/mL)				
CC(=O)/C(=C\c1ccc(N(C)C)cc1)n1c([N+](=O)[O-])cnc1C	1620 µM (≈ 509 µg/mL)	1620 µM (≈ 509 µg/mL)	1620 µM (≈ 509 µg/mL)	410 µM (≈ 129 µg/mL)	810 µM (≈ 255 µg/mL)	810 µM (≈ 255 µg/mL)	1620 µM (≈ 509 µg/mL)	410 µM (≈ 129 µg/mL)	512 µg/mL (≈ 1630 µM)	128 µg/mL (≈ 407 µM)	256 µg/mL (≈ 814 µM)	4 - 16
CC(=O)/C(=C\c1ccc(C#N)cc1)n1c([N+](=O)[O-])cnc1C	1720 µM (≈ 510 µg/mL)	1720 µM (≈ 510 µg/mL)	860 µM (≈ 255 µg/mL)	860 µM (≈ 255 µg/mL)	1720 µM (≈ 510 µg/mL)	860 µM (≈ 255 µg/mL)	430 µM (≈ 127 µg/mL)	860 µM (≈ 255 µg/mL)	256 µg/mL (≈ 864 µM)	128 µg/mL (≈ 432 µM)	256 µg/mL (≈ 864 µM)	
Cc1ncc([N+](=O)[O-])n1/C(=C/c1c[nH]c2ccccc12)C(C)O (stereo not drawn)	810 µM (≈ 253 µg/mL)	1630 µM (≈ 509 µg/mL)	410 µM (≈ 128 µg/mL)	810 µM (≈ 253 µg/mL)	810 µM (≈ 253 µg/mL)	410 µM (≈ 128 µg/mL)	810 µM (≈ 253 µg/mL)	410 µM (≈ 128 µg/mL)	512 µg/mL (≈ 1640 µM)	128 µg/mL (≈ 410 µM)	256 µg/mL (≈ 820 µM)	4 - 16
COc1cc(/C=C(\C(C)=O)n2c([N+](=O)[O-])cnc2C)ccc1O	1600 µM (≈ 508 µg/mL)	1600 µM (≈ 508 µg/mL)	400 µM (≈ 127 µg/mL)	1600 µM (≈ 508 µg/mL)	800 µM (≈ 254 µg/mL)	100 µM (≈ 31.7 µg/mL)	800 µM (≈ 254 µg/mL)	400 µM (≈ 127 µg/mL)	256 µg/mL (≈ 807 µM)	128 µg/mL (≈ 403 µM)	256 µg/mL (≈ 807 µM)	4 - 16
CC(=O)/C(=C\c1ccc(Cl)cc1)n1c([N+](=O)[O-])cnc1C	1640 µM (≈ 501 µg/mL)	210 µM (≈ 64.2 µg/mL)	1640 µM (≈ 501 µg/mL)	1640 µM (≈ 501 µg/mL)	1640 µM (≈ 501 µg/mL)	410 µM (≈ 125 µg/mL)	1640 µM (≈ 501 µg/mL)	820 µM (≈ 251 µg/mL)	512 µg/mL (≈ 1670 µM)	128 µg/mL (≈ 419 µM)	128 µg/mL (≈ 419 µM)	
CCn1cc(C(=O)O)c(=O)c2cc(F)c(N3CCNCC3)cc21 [NORFLOXACIN]	1600 µM (≈ 511 µg/mL)	200 µM (≈ 63.9 µg/mL)	100 µM (≈ 31.9 µg/mL)	25 µM (≈ 7.98 µg/mL)	1600 µM (≈ 511 µg/mL)	50 µM (≈ 16 µg/mL)	1600 µM (≈ 511 µg/mL)	1600 µM (≈ 511 µg/mL)				
CC(=O)/C(=C\c1ccccc1)n1c([N+](=O)[O-])cnc1C	1880 µM (≈ 510 µg/mL)	940 µM (≈ 255 µg/mL)	470 µM (≈ 127 µg/mL)	940 µM (≈ 255 µg/mL)	940 µM (≈ 255 µg/mL)	230 µM (≈ 62.4 µg/mL)	470 µM (≈ 127 µg/mL)	470 µM (≈ 127 µg/mL)	256 µg/mL (≈ 944 µM)	32 µg/mL (≈ 118 µM)	128 µg/mL (≈ 472 µM)	4 - 16
CC(=O)/C(=C\c1ccc(Cl)cc1Cl)n1c([N+](=O)[O-])cnc1C	1650 µM (≈ 561 µg/mL)	1650 µM (≈ 561 µg/mL)	830 µM (≈ 282 µg/mL)	1650 µM (≈ 561 µg/mL)	1650 µM (≈ 561 µg/mL)	1650 µM (≈ 561 µg/mL)	1650 µM (≈ 561 µg/mL)	830 µM (≈ 282 µg/mL)	512 µg/mL (≈ 1510 µM)	128 µg/mL (≈ 376 µM)	512 µg/mL (≈ 1510 µM)	
OC(Cn1cncn1)(Cn1cncn1)c1ccc(F)cc1F [FLUCONAZOLE]									8 µg/mL (≈ 26.1 µM)	8 µg/mL (≈ 26.1 µM)	256 µg/mL (≈ 836 µM)	
CC(=O)/C(=C\c1c[nH]c2ccccc12)n1c([N+](=O)[O-])cnc1C	830 µM (≈ 258 µg/mL)	1650 µM (≈ 512 µg/mL)	830 µM (≈ 258 µg/mL)	830 µM (≈ 258 µg/mL)	1650 µM (≈ 512 µg/mL)	420 µM (≈ 130 µg/mL)	420 µM (≈ 130 µg/mL)	420 µM (≈ 130 µg/mL)	512 µg/mL (≈ 1650 µM)	512 µg/mL (≈ 1650 µM)	512 µg/mL (≈ 1650 µM)	4 - 16
